Experimental data taken from ChEMBL document CHEMBL1201862, “PubChem BioAssay data set” (2004).
The source made the active and inactive calls.

How the values were obtained:
[1] = target: T1, DNA repair and recombination protein RAD54-like (Homo sapiens, UniProt Q92698); test: RAD54 Holliday junction migration blockers – biochemical, fluorescence, cherry-picked samples, dose series, confirmation (AID 651657); format: functional
T1 sequence (Q92698 whole entry): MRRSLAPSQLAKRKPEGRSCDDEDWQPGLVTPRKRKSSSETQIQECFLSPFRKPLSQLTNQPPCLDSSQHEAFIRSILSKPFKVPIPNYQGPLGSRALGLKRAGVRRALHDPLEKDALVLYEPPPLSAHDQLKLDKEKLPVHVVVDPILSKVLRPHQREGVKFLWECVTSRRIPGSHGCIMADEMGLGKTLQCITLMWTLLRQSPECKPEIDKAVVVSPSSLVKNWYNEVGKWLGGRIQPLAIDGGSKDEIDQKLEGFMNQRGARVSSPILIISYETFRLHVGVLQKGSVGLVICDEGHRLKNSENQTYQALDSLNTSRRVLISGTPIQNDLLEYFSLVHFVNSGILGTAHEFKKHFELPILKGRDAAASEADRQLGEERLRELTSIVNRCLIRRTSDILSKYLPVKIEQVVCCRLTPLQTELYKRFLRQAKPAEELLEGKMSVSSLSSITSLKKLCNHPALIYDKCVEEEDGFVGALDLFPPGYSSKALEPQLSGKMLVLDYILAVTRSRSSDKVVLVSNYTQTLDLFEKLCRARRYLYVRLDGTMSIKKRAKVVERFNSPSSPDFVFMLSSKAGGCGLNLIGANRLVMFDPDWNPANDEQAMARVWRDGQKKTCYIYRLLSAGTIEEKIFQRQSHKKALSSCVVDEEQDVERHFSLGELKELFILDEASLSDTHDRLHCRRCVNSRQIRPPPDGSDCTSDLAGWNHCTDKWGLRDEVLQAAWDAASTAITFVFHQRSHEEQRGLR

[2] = target: T2, DNA repair protein RAD52 homolog (Homo sapiens, UniProt P43351); format: functional, biochemical
T2 sequence (P43351 whole entry): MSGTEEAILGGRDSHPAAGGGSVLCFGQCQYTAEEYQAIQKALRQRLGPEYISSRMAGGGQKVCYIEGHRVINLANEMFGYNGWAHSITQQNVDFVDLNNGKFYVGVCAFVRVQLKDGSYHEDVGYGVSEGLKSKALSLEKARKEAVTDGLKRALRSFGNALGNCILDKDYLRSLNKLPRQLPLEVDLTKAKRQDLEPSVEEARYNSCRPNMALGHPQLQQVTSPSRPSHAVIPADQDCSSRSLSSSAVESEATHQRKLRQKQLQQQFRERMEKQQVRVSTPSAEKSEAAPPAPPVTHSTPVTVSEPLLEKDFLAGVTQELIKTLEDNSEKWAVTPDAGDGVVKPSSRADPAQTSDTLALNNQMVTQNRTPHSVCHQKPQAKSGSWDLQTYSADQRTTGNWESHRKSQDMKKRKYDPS

[3] = target: T3, Microphthalmia-associated transcription factor (Homo sapiens, UniProt O75030); test: reducers of TRPM1 reporter luminescence, concentration series – cell-based, SK-MEL-5, cherry-picked, set 3, MITF inhibitor project, dose response (AID 493073); format: functional;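 note: SK-MEL-5 melanoma cells with luciferase driven by the MITF target TRPM1 promoter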
T3 sequence (O75030 whole entry): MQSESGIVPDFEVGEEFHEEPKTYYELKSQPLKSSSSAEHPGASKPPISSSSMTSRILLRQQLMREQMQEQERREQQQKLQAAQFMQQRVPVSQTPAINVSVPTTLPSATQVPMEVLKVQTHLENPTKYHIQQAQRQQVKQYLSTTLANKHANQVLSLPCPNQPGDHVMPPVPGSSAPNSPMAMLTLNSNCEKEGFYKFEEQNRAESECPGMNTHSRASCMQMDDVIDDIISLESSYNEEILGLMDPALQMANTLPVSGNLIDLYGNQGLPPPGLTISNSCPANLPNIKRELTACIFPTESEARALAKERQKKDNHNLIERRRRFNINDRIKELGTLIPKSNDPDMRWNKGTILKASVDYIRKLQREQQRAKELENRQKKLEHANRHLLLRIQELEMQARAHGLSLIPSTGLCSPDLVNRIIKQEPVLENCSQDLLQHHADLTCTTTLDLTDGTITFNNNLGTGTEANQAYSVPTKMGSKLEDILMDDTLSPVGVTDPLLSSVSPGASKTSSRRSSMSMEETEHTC

cells [4] = test: cells
Major prion protein = Major prion protein (Homo sapiens, UniProt P04156); format: functional, cell-based
[5] = target: T4, Methionyl-tRNA synthetase, putative (Trypanosoma brucei brucei, UniProt Q38C91); format: functional, Trypanosoma brucei brucei strain 927/4 GUTat10.1
T4 sequence (Q38C91 whole entry): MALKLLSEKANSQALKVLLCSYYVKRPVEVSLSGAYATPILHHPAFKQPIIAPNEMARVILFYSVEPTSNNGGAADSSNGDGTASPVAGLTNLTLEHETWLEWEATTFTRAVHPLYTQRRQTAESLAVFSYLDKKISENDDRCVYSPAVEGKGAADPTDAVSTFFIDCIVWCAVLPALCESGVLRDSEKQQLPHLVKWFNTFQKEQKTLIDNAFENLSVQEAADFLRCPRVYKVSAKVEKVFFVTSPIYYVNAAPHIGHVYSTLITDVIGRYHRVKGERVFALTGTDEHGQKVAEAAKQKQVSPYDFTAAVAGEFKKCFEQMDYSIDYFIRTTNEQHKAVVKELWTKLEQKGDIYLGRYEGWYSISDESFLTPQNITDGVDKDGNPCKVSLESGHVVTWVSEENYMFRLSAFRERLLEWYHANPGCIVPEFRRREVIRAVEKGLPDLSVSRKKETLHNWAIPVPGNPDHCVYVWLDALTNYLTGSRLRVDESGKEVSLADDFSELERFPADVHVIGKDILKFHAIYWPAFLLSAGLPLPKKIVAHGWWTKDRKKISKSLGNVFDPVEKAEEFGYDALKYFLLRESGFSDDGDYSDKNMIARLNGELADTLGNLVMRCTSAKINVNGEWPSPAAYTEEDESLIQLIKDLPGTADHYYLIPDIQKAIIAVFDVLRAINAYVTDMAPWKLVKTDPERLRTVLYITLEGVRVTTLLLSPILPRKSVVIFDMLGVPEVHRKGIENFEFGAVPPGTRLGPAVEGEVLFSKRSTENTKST

[6] = target: T4, Methionyl-tRNA synthetase, putative; format: functional, Trypanosoma brucei brucei strain 927/4 GUTat10.1; remark: listed apart in the source
[7] = Counterscreen for inhibitors of Trypanosoma brucei methionyl tRNA synthetase (MetRS): Luminescence-based cell-based high throughput dose response assay to identify compounds that are cytotoxic to Jurkat human T lymphocyte cells.; format: functional
[8] = target: T5, Hepatocyte nuclear factor 4-alpha (Homo sapiens, UniProt P41235); format: functional, cell-based;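 note: biochemical luminescence-based dose-response counterscreen measuring inhibition of HNF4 dimerization, run alongside a screen for blockers of ABHD5–perilipin-5 interaction; split luciferase complementation of HNF4 fusion proteins in cell lysate measuring dimerization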
T5 sequence (P41235 whole entry): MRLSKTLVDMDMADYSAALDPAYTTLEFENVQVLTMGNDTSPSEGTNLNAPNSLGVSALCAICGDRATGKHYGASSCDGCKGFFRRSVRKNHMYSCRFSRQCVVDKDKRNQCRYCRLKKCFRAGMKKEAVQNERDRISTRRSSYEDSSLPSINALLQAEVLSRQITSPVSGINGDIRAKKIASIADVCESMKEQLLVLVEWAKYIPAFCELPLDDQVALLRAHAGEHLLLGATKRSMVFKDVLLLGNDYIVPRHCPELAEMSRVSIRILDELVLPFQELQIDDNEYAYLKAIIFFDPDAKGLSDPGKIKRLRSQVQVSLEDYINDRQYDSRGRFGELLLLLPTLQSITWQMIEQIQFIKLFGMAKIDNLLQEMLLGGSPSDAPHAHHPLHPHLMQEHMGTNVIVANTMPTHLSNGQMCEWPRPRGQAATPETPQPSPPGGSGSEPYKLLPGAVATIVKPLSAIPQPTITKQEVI

[9] = bead-based luminescence quenchers, dual-tagged ARNT – biochemical, AlphaScreen, cherry-pick, artefact control for ARNT-TACC3 interaction inhibitor project, dose response (AID 651705); format: functional;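 note: AlphaScreen bead proximity signal that flags compounds interfering with the detection technology; potency reflects signal decrease which marks the compound as an assay artifact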
INS1 = test: INS-1E survival protection against cytokine death – cell-based, luminescence, retest, dose response (AID 449756); format: functional; settings: Rattus norvegicus;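 note: cell death triggered by IL-1 beta plus TNF-alpha plus IFN-gamma mixture; protective hits raise ATP signal compared with cytokine alone wells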
H9c2 = test: cells; format: functional, cell-based; settings: Rattus norvegicus, H9c2, Myocardium
cells [10] = format: functional, cell-based
cells [11] = format: functional, cell-based; remark: listed apart in the source
[12] = target: T6, Long-chain-fatty-acid--AMP ligase FadD28 (Mycobacterium tuberculosis, UniProt P9WQ59); test: Fluorescence polarization aasay to screen for inhibitors that compete for the binding of FadD28 to a bisubstrate Measured in Biochemical System Using Plate Reader - 2147-01_Inhibitor_Dose_CherryPick_Activity.; format: functional, Mycobacterium tuberculosis H37Rv
T6 sequence (P9WQ59 whole entry): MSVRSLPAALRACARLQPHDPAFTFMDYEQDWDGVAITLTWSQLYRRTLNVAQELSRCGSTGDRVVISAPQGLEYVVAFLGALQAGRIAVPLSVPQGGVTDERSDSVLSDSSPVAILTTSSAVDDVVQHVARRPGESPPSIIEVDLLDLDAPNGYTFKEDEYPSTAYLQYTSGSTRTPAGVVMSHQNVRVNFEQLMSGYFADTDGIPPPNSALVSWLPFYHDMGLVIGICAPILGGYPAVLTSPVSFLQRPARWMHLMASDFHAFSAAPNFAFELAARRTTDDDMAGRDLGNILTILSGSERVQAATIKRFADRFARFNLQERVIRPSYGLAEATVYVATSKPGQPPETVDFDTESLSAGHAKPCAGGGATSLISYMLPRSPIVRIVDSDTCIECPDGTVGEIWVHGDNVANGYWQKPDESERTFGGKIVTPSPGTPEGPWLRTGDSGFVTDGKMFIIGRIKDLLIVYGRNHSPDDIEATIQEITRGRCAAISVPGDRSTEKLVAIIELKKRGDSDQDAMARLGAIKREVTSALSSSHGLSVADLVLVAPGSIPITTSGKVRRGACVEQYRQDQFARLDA

[13] = target: T7, Rac GTPase-activating protein 1 (Homo sapiens, UniProt Q9H0H5); test: blockers of MgcRacGAP-driven Rac1 GTP hydrolysis – biochemical, ADP Hunter fluorescence, primary and confirmatory, confirmation (AID 624330); format: functional
T7 sequence (Q9H0H5 whole entry): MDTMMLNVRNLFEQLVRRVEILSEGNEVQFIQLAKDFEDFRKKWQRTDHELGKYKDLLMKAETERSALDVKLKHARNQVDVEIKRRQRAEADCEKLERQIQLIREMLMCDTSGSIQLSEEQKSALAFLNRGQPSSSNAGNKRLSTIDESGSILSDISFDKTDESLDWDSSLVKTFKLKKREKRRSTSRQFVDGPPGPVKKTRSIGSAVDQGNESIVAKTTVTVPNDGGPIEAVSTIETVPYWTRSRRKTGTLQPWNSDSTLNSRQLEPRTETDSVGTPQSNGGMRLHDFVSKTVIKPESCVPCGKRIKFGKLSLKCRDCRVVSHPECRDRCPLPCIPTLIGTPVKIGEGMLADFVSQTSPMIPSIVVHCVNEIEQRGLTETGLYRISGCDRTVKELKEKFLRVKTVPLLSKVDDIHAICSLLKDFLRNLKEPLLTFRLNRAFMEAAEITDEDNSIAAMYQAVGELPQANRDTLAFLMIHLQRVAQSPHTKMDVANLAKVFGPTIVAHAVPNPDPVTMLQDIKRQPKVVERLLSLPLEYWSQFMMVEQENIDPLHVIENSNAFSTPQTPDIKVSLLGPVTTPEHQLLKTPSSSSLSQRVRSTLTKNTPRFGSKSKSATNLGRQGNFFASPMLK

[14] = Luminescence Cell-Based Dose Retest to Confirm Inhibitors of Cancer Stem Cells. [Related pubchem assays (depositor defined):AID2717, AID2721]; format: functional; settings: Homo sapiens

## CCN1CCN(c2ccc(Nc3ccnc4ccccc34)cc2)CC1
[1]
  AC50: 12.2 µM (active)
[2]
  AC50: 3.19 µM (active)
[3]
  AC50: 12.3 µM (active)

## CCOc1ccc(NC(=O)CCSc2ccc3ccccc3n2)cc1
Cells [4]
  IC50: > 138 µM (inactive)
Major prion protein
  IC50: 9.01 µM (active)

## Cc1cccc(NS(=O)(=O)c2c(C)[nH]c(C)c2C(=O)N2CCCC2)c1
[5]
  IC50: 11.8 µM (inactive)
[6]
  IC50: 35.4 µM (inactive)
[7]
  IC50: 83.3 µM (inactive)

## NC(=O)C(C(=O)/C=C/c1ccc(Cl)cc1)=C1SCCS1
[8]
  IC50: 12.1 µM (inactive)

## CCOC(=O)c1c(CN2CCCCC2)n(C)c2cc(Br)c(OC)cc12
[1]
  AC50: 36.3 µM (active)

## CCc1ccc(NC(=O)CSc2ccc(-c3ccccn3)nn2)cc1
[9]
  AC50: 87 µM (active)
INS1
  AC50: 9.24 µM (active)
H9c2
  IC50: > 79 µM (inactive)
Cells [10]
  EC50: 160 µM (active)
Cells [11]
  EC50: > 350 µM (not active)

## COC(=O)CSc1ccnc2cc(Cl)ccc12
Cells [4]
  IC50: > 138 µM (inactive)
Major prion protein
  IC50: 5.16 µM (active)

## COC(=O)COc1ccc(Cl)cc1C1Nc2ccccc2C(=O)N1c1ccc(OC)cc1 (centres undefined)
[12]
  AC50: > 100 µM (inactive)

## NC(=O)CSc1nc(-c2ccccc2)nc2ccccc12
Cells [4]
  IC50: > 138 µM (inactive)
Major prion protein
  IC50: 6.23 µM (active)

## Cc1cccn2c(=O)c3cc(C(=O)NCc4ccccc4)c(=N)n(CCCN4CCOCC4)c3nc12
[1]
  AC50: 15.3 µM (active)

## OC(c1cc(F)cc(Cl)c1)c1nc(-c2ccc3ccccc3c2)c[nH]1 (centres undefined)
[5]
  IC50: 2.45 µM (active)
[6]
  IC50: 1.46 µM (active)
[7]
  IC50: 83.3 µM (inactive)

## CCCCCNC(=O)C(c1cc2ccccc2o1)n1c(=O)c(-c2ccco2)nc2ccccc21 (centres undefined)
[8]
  IC50: 2 µM (active)

## Cc1cccc(NC(=O)CCC(=O)N/N=C/c2ccc(O)cc2O)c1
[13]
  IC50: 62.8 µM (active)
[9]
  AC50: 118 µM (active)
[14]
  AC50: 9.74 µM (active)

## Cc1cccc(OCC(=O)N/N=C\c2cn(C)c3ccccc23)c1
[12]
  AC50: 14.6 µM (active)
